In patent US20110257013A1, “METHOD FOR CONTROLLING FLOWERING TIME OF PLANT” (SUMITOMO CHEMICAL COMPANY, LIMITED, priority 2008, published 2011):

System: recombinant Arabidopsis thaliana
Assay: Flowering induction in recombinant Arabidopsis thaliana
Assay type: in vivo
Conditions: Arabidopsis with vector (e); 50 μM CuSO4 medium for six hours; observed five days after treatment; compared to non-inducible group
Protocol: The vector (e) prepared in Example 1 was introduced into Agrobacterium (Agrobacterium tumefaciens strain C58C1). The resulting Agrobacterium was cultured in a LB agar medium (0.5% yeast extract, 1.0% bactotrypton, 0.5% saline, 1% agar) containing 50 mg/L kanamycin, 100 mg/L ampicillin, and 100 mg/L rifampicin, and a drug-resistant colony was selected to obtain recombinant Agrobacterium. Arabidopsis (Arabidopsis thaliana ecotype Columbia) was infected by the obtained recombinant Agrobacterium according to the method described in Model Plant Laboratory Manual (edited by Iwabuchi Masaki et al, 2000, Springer-Verlag Tokyo Co., Ltd., ISBN 4-431-70881-2 C3045) to introduce genes. After T1 seeds collected from the Arabidopsis subjected to gene introduction, the seeds were plated and grown on a modified MS agar medium (MS inorganic salts, B5 vitamin, 1% sucrose, 0.8% agar) containing 20 mg/L of Benlate, 200 mg/L of Claforan, and 25 mg/L kanamycin to select a plant individual resistant to kanamycin. The selected plant individual was transplanted to a pot in which culture soil was previously placed, and grown in an artificial weather chamber to obtain T2 seeds. […]

For `O=S(=O)([O-])[O-].[Cu+2]` [CuSO4], the flowering time was “flowering was induced earlier”.
